Laboratory results as given in patent US20190255073A1, “ESTERS OF 3-POLYAMINE DERIVATIVES OF BILE ACIDS FOR THE TREATMENT OF INFECTIONS” (VIRBAC, priority 2016, published 2019).
In brackets after ≈: the same amount, converted by molar mass.

Key:
[1] = system: P. aeruginosa (1051575); test: Potentiation of the doxycycline activity at 2 μg/mL; assay type: cell-based, Pseudomonas aeruginosa; conditions: in combination with doxycycline 2 μg/mL; 24 h, 37°
[2] = system: E. coli ATCC28922; test: MIC determination by microplate dilution, E. coli human strain; assay type: cell-based, Escherichia coli; conditions: Escherichia coli, ATCC28922, Gram-negative, Mueller-Hinton medium, 24 h, 37° C.
Outline: (§1)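 Twofold dilution series of compounds (stock 5 mg/mL, DMSO/methanol 50/50) in Mueller-Hinton medium, seeded with bacteria at OD 0.01 from 24 h, 37 °C precultures. After 24 h at 37 °C under humid atmosphere, MIC derived from OD at 620 nm; run in duplicate.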

[3] = system: S. aureus ATCC25923; test: MIC determination by microplate dilution, S. aureus human strain; assay type: cell-based, Staphylococcus aureus; conditions: Staphylococcus aureus, ATCC25923, Gram-positive, Mueller-Hinton medium, 24 h, 37° C.
Outline: as §1

[4] = system: P. aeruginosa (1051575); test: MIC determination by microplate dilution, P. aeruginosa animal strain; assay type: cell-based, Pseudomonas aeruginosa; conditions: Pseudomonas aeruginosa, Gram-negative, Mueller-Hinton medium, 24 h, 37° C.
Outline: as §1

[5] = system: S. aureus (340); test: MIC determination by microplate dilution, S. aureus animal strain; assay type: cell-based, Staphylococcus aureus; conditions: Staphylococcus aureus, Gram-positive, Mueller-Hinton medium, 24 h, 37° C.
Outline: as §1

[6] = system: S. intermedius (1051997); test: MIC determination by microplate dilution, S. intermedius animal strain; assay type: cell-based, Staphylococcus intermedius; conditions: Staphylococcus intermedius, Gram-positive, Mueller-Hinton medium, 24 h, 37° C.
Outline: as §1

[7] = system: P. aeruginosa (1051575); test: Potentiation of chloramphenicol activity; assay type: cell-based, Pseudomonas aeruginosa
Protocol: This method requires the use of a 96-well plate: 100 μL of a liquid culture medium are placed in each well and then seeded with the microbial suspension prepared previously. The required volume to be seeded is calculated for an OD of 0.01, which corresponds to about 5×10^6 bacteria in each well. In this plate, the first line corresponds to a negative control (200 μL of sterile culture medium in each well), the second line corresponds to a positive control (100 μL of sterile culture medium+100 μL of the bacterial suspension), and the third line contains 192 μL of culture medium; 8 μL of compound of formula (I) to be tested are placed in each well. […] 92 μL of bacterial suspension are then added to lines 3 to 8. […] After 24 hours of incubation at 37° C., 40 μL of nitro tetrazolium iodide are added to each well to reveal the presence of live bacteria by staining the medium pink.
The procedure is identical to that indicated in Example 5 above. […]
(§2) The results are given in table V. They indicate the concentration of compound of formula (I) required to be able to restore the activity of the antibiotic under consideration.

[8] = system: E. coli (1956); test: MIC determination by microplate dilution, E. coli animal strain; assay type: cell-based, Escherichia coli; conditions: Escherichia coli, Gram-negative, Mueller-Hinton medium, 24 h, 37° C.
Outline: as §1

[9] = system: C. albicans; test: Antifungal activity, cascade microdilution, C. albicans; assay type: cell-based, Candida albicans; conditions: Candida albicans, 24 h, read-out: IC50 (μg/mL) C. albicans
[10] = system: E. faecalis ATCC29212; test: MIC determination by microplate dilution, E. faecalis human strain; assay type: cell-based, Enterococcus faecalis; conditions: Enterococcus faecalis, ATCC29212, Gram-positive, Mueller-Hinton medium, 24 h, 37° C.
Outline: as §1

[11] = system: P. aeruginosa (1051575); test: Potentiation of erythromycin activity; assay type: cell-based, Pseudomonas aeruginosa; conditions: concentration of compound required with erythromycin 2 μg/mL
Protocol: This method requires the use of a 96-well plate: 100 μL of a liquid culture medium are placed in each well and then seeded with the microbial suspension prepared previously. The required volume to be seeded is calculated for an OD of 0.01, which corresponds to about 5×10^6 bacteria in each well. In this plate, the first line corresponds to a negative control (200 μL of sterile culture medium in each well), the second line corresponds to a positive control (100 μL of sterile culture medium+100 μL of the bacterial suspension), and the third line contains 192 μL of culture medium; 8 μL of compound of formula (I) to be tested are placed in each well. Thereafter, a cascade dilution is performed from this line. […] (1 mg dissolved in 20 mL) are then added to each well of the lines 3 to 8 to obtain a final antibiotic concentration of 2 μg/mL. 92 μL of bacterial suspension are then added to lines 3 to 8. […] After 24 hours of incubation at 37° C., 40 μL of nitro tetrazolium iodide are added to each well to reveal the presence of live bacteria by staining the medium pink.
The procedure is identical to that indicated in Example 5 above. 8 μL of an antibiotic solution under consideration (1 mg dissolved in 20 mL) are added to obtain a final antibiotic concentration of 2 μg/mL instead of 8 μL of a doxycycline solution.
as §2

[12] = system: P. aeruginosa ATCC27853; test: MIC determination by microplate dilution, P. aeruginosa human strain; assay type: cell-based, Pseudomonas aeruginosa; conditions: Pseudomonas aeruginosa, ATCC27853, Gram-negative, Mueller-Hinton medium, 24 h, 37° C.
Outline: as §1

Which results are given for `CC(C)OC(=O)CC[C@@H](C)[C@H]1CCC2C3C(CC[C@@]21C)[C@@]1(C)CC[C@H](NCCCN(CCCN)CCCN)CC1C[C@H]3O` (stereo partly drawn) [(39), isopropyl 3β-(tris(3-aminopropyl)amine)chenodeoxycholate]?
MIC - P. aeruginosa (1051575): content of compound of formula (I) to restore the doxycycline activity (at 2 μg/mL) [1]: 2 µg/mL; MIC [2]: 14 µg/mL (≈ 23.1 µM); MIC [3]: 7 µg/mL (≈ 11.6 µM); MIC [4]: 28 µg/mL (≈ 46.3 µM); MIC [5]: 7 µg/mL (≈ 11.6 µM); MIC [6]: 3.5 µg/mL (≈ 5.79 µM); MIC P. aeruginosa (1051575), compound + chloramphenicol ([7]; concentration of compound required with chloramphenicol 2 μg/mL): 4 µg/mL; MIC P. aeruginosa (1051575), compound + chloramphenicol ([7]; concentration of compound required with chloramphenicol 4 μg/mL): 2 µg/mL; MIC [8]: 28 µg/mL (≈ 46.3 µM); IC50 [9]: 4 µg/mL (≈ 6.61 µM); MIC [10]: 14 µg/mL (≈ 23.1 µM); MIC P. aeruginosa (1051575), compound + erythromycin [11]: 30 µg/mL; MIC [12]: 28 µg/mL (≈ 46.3 µM)
